# Source: patent publication US20260306526A1, “COMBINATION THERAPY FOR BACTERIAL INFECTIONS COMPRISING ZINC-CHELATOR, BETA-LACTAM ANTIBIOTIC AND SERINE BETA-LACTAMASE INHIBITOR” (priority 2023, published 2026)
# What was measured:
# [1] = tested on: MBLs; settings: cited from earlier work
# [2] = tested on: K. pneumoniae K66-45 (NDM-1); experiment: MIC determination of meropenem with zinc chelator at varying zinc concentrations in the medium (Example 31); format: cell-based, Klebsiella pneumoniae
# Method: An experiment was conducted to determine the Minimal Inhibitory Concentration (MIC) of meropenem (MEM) in combination with the zinc chelator according to Example 26 of WO 2018/033719 at varying concentrations of zinc in the medium. The medium was a Mueller Hinton broth from Thermo Fischer. The zinc content was measured as 5.6 μM using ICP-MS. The concentration of zinc in the plasma of healthy animals has been determined to be close to this value. In infectious tissue, the zinc concentration is below the limit of detection (see, for example Bilinskaya et al., Am. Soc. For Microbiology (2020), 58, pages 1-8). Zinc sulfate was then added to this broth to obtain three further concentrations: 15.6 μM, 25.6 μM and 35.6 μM of zinc, keeping all other parameters constant.
# As a model bacterial strain for this experiment, the MIC of MEM vs. K. pneumoniae K66-45 (NDM-1) was then determined in broth containing the four concentrations of zinc following the protocol given in Example 1. The EUCAST MIC value for MEM alone (EUCAST: standardization organization for MIC values of antibiotics) is 4-8 μM, meaning that if a bacterial strain is inhibited at lower concentrations than the MIC value, the bacterial strain is sensitive(S) to MEM. Correspondingly, if the bacterial strain is not inhibited at MIC or lower, the strain is resistant (R). If the inhibition is within the MIC range 4-8 μM, the resistance is intermediate (I).
# [3] = tested on: clinically isolated gram-negative bacteria with MBL as a resistance mechanism; settings: cited from earlier work
# [4] = tested on: NDM; settings: mouse models; relatively high doses required to reverse carbapenem resistance; cited from earlier work
# [5] = tested on: MBL-producers; settings: cited from earlier work
# [6] = tested on: MBL class IMP; settings: cited from earlier work
smiles,measurement,setting,value
"NC(=O)[C@@H]1CC[C@@H]2CN1C(=O)N2OS(=O)(=O)O [Avibactam, avibactam]",inhibitory activity against MBLs,[1],none of these β-lactamase inhibitors possess inhibitory activity against MBLs
CC1=C[C@@H]2CN(C(=O)N2OS(=O)(=O)O)[C@@H]1C(N)=O [ETX2514],inhibitory activity against MBLs,[1],none of these β-lactamase inhibitors possess inhibitory activity against MBLs
"C[C@@H](O)[C@H]1C(=O)N2C(C(=O)O)=C(S[C@@H]3CN[C@H](C(=O)N(C)C)C3)[C@H](C)[C@H]12 [Meropenem, meropenem, reference compound]",EUCAST MIC class for MEM alone,[2]; zinc concentration 5.6 μM,"S (if a bacterial strain is inhibited at lower concentrations than the MIC value, the bacterial strain is sensitive(S) to MEM)"
same,EUCAST MIC class for MEM alone,[2]; zinc concentration 35.6 μM,"R (if the bacterial strain is not inhibited at MIC or lower, the strain is resistant (R))"
same,sensitivity to meropenem alone,"[3]; meropenem used alone, many clinical isolates with MBL",resistant to the antibiotic
same,effect of MEM in combination with the compound of Example 26 of WO 2018/033719,"[3]; same strains, sensitivity reinstated",inhibitory effect
N[C@H](CN[C@H](CN[C@@H](CC(=O)O)C(=O)O)C(=O)O)C(=O)O [aspergillomarasmine A],in vivo activity,[4],in vivo activity in mouse models
NCCN[C@H]1CC[C@H](CC(=O)N[C@H]2Cc3cccc(C(=O)O)c3OB2O)CC1 [taniborbactam],activity in combination with cefepime,[5],potent activity
same,effect in combination with cefepime,[6],no effect
O=C(O)C[C@@H]1CC[C@H](NC(=O)Cc2cccs2)B(O)O1 [vaborbactam],inhibitory activity against MBLs,[1],none of these β-lactamase inhibitors possess inhibitory activity against MBLs
